We go through one compound from US20110059869A1, “Method for Increasing Enzymatic Reactivity” (RIKEN, priority 2008, published 2011).

Common to all, as to type: biochemical
One experiment relates to restriction enzyme BceAI. Description: BceAI cleavage of biotin-labeled 300 bp DNA fragments adsorbed to streptavidin beads. The protocol:
Biotin-labeled 300 by DNA fragments adsorbed (bound) to streptavidin beads were reacted with the restriction enzyme BceAI and the final concentration of the trehalose that was added to the system was examined as follows.
PCR was conducted with biotin-labeled primers (Seq. ID Nos. 1 and 2) on 300 by DNA fragments using pFLCIII vector as template. The fragments were cleaved at the type II restriction enzyme site BceAI, releasing 50 by DNA fragments that were detected. Paramagnetic streptavidin beads were washed with accessory 1× binding buffer, recovered with a magnetic stand to remove the supernatant, and then suspended in the same buffer. Equal volumes of the PCR product-containing solution and 2× binding buffer were mixed, the bead solution was added, and the mixture was gently stirred with top to bottom inversion and rotation for 15 minutes at room temperature to induce adsorption. The magnetic stand was used to recover the sample adsorption beads, which were washed three times with 1× binding buffer. They were then washed once with 1× BceAI buffer. […] The reaction solutions were added to washed beads, mixed, and reacted for 3 hours at 37° C. The beads were recovered with the magnetic stand and cleaved with restriction enzyme. The supernatant containing the cDNA that had been released was reacted with proteinase K, treated with phenol chloroform, and precipitated from ethanol. […]

Experiment [1] has as its system XhoI, PstI, HindIII, and NotI. Description: Various restriction enzyme reactions on biotin-labeled cDNA immobilized on streptavidin beads. The conditions noted are these: 0.6 M trehalose vs trehalose (−); 3 hours at 37° C.; all enzymes. On the procedure:
Streptavidin beads on which were adsorbed double-stranded cDNA were washed with various restriction enzyme buffers. The restriction enzymes employed were XhoI, PstI, HindIII, and NotI. Two reaction solutions (various 1× buffers, 1× BSA based on enzyme, restriction enzyme 40 units) were prepared: a trehalose (+) system to which D(+)-trehalose was added to a final concentration of 0.6 M, and a trehalose (−) system, to which no trehalose was added. The reaction solutions were admixed to beads that had been washed and the mixtures were reacted for 3 hours at 37° C. A magnetic stand was used to recover (aggregate) the beads, cleavage was conducted with restriction enzyme, and the supernatant containing the cDNA that had been released was measured with a liquid scintillation counter. The cDNA yield and restriction enzyme efficiency were calculated from the RI count values (Scheme 2).

The test system of another experiment is restriction enzyme PstI. The experiment can be described thus: PstI cleavage reactions with different distances from bead or plate surface to the DNA cleavage site. The following applies: 0.6 M trehalose vs none; cleavage site 20 bp, 50 bp, 100 bp from surface; beads and plates. The protocol:
Three biotin-labeled DNA fragments I, II, and III (Seq. ID Nos. 4 to 6, Scheme 4) were cleaved at their respective restriction enzyme PstI site and the size of the DNA fragments released was examined. Paramagnetic streptavidin beads were washed with the accessory 1× binding buffer and recovered with a magnetic stand to remove the supernatant. They were then suspended in identical buffer. To each of the three types of biotin-labeled DNA fragments (500 ng) was admixed an equal volume of 2× binding buffer, the bead solution was added, and the mixture was stirred gently for 15 minutes with top to bottom inversion and rotation to induce adsorption. The beads to which the sample had adsorbed were recovered with the magnetic stand, washed three times with 1× binding buffer, and washed one more time with 1× PstI buffer. […] The precipitate of DNA fragments obtained was dissolved in 1× TE (pH 7.5) and analyzed with Bioanalyzer DNA 1000 assay (Agilent Technologies).
Three biotin-labeled DNA fragments I, II, and III (Seq. ID Nos. 4 to 6, Scheme 4) were cleaved at their respective restriction enzyme PstI site and the size of the DNA fragments released was examined. […] The precipitate of DNA fragments obtained was dissolved in 1× TE (pH 7.5) and analyzed with Bioanalyzer DNA 1000 assay (Agilent Technologies). […]

Experiment [2] concerns ligation enzymatic reaction solution of a SOLID system 2.0. The experiment can be described thus: Sequencing reaction in a SOLID sequencing system. The conditions noted are these: 0.3 M trehalose vs none. The protocol: D(+)-trehalose was added to the ligation enzymatic reaction solution of a SOLID system 2.0 and the effects were measured. The experiment was conducted at a final D(+)-trehalose concentration of 0.3 M. The noise to signal ratio (N/S ratio) of each cycle was employed for comparison. The N/S ratio was obtained by dividing the second brightest fluorescence intensity by the brightest fluorescence intensity.
The D(+)-trehalose employed was D(+)-trehalose dihydrate (201-02253 reagent grade) (Wako). A SOLiD™ fragment library sequencing kit v2 (4400466) was employed for sequencing with the SOLID system (Applied Biosystems). The sample employed as a SOLiD™ DH10B fragment library control kit (4391889).
Probe Mixes A and B and bridge probe, prepared with the reagents contained in a SOLiD™ fragment library sequence kit v2 (4400466) and adjusted to a D(+)-trehalose (90208 BioChemika, 99.5% (HPLC)) (Fluka) concentration of 1.7 M, were added to each sequence primer in the quantities indicated below.
The operation was conducted according to the manufacturer's protocol following addition.

Consider `OC[C@H]1O[C@H](O[C@H]2O[C@H](CO)[C@@H](O)[C@H](O)[C@H]2O)[C@H](O)[C@@H](O)[C@@H]1O` [trehalose, D(+)-trehalose], for which, in the experiment on restriction enzyme BceAI (0 M, 0.3 M, 0.6 M, and 0.8 M trehalose), the “change in yield of 50 by fragments with trehalose concentration” value is given as “No change was observed beyond 0.6 M”. In addition, the “yield of 50 by fragments released by cleavage” value with restriction enzyme BceAI (trehalose added vs not added, beads, 3 hours at 37° C.) is listed as “increased”. For the same compound, the “quantity of released cDNA recovered” value in experiment [1] was “higher quantity was recovered”. Further, the “yield of DNA released by cleavage” value in the experiment with restriction enzyme PstI was “increase”. Besides, the “noise to signal ratio (N/S ratio) with each cycle” value in experiment [2] is listed as “reduced the rise in noise”.
